Assay results reported in article PMC7320009 (Scientific Reports, 2020).

How the values were obtained:
[1] = target: T1, BPSS2242 (Burkholderia pseudomallei, UniProt Q63I27)
[2] = target: T1, BPSS2242; remark: listed apart in the source

T1 sequence (Q63I27 1-271 limits assumed): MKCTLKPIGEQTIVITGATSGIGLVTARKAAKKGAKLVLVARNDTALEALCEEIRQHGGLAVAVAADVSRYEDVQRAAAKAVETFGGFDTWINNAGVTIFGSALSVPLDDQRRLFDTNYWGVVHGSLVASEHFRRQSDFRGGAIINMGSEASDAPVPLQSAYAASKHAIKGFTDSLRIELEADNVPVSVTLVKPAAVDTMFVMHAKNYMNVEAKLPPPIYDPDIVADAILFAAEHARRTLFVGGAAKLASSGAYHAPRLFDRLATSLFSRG

Row | SMILES | NADPH oxidation at 340 nm [1] | Tm [2] [°C]
1 | CC(=O)C=O [methylglyoxal] | BPSS2242 exhibited reductase activity toward diacetyl and methylglyoxal when NADPH was used | 
2 | NC(=O)C1=CN([C@@H]2O[C@H](COP(=O)(O)OP(=O)(O)OC[C@H]3O[C@@H](n4cnc5c(N)ncnc54)[C@H](OP(=O)(O)O)[C@@H]3O)[C@@H](O)[C@H]2O)C=CC1 [NADPH] |  | 55.23
